Results reported in ChEMBL document CHEMBL1201862, “PubChem BioAssay data set” (2004).
The source made the active and inactive calls.

Tests used:
Exodeoxyribonuclease V = Exodeoxyribonuclease V (Escherichia coli (strain K12), UniProt P04993+P07648+P08394); assay: RecBCD inhibition via phage-restricted bacterial growth – absorbance, V66 E. coli, mutant T4 phage, counter-screen for AddAB inhibitor project, dose response (AID 492957); type: functional, cell-based, Escherichia coli str. K-12 substr. MG1655
Sequence of Exodeoxyribonuclease V (P04993 whole entry): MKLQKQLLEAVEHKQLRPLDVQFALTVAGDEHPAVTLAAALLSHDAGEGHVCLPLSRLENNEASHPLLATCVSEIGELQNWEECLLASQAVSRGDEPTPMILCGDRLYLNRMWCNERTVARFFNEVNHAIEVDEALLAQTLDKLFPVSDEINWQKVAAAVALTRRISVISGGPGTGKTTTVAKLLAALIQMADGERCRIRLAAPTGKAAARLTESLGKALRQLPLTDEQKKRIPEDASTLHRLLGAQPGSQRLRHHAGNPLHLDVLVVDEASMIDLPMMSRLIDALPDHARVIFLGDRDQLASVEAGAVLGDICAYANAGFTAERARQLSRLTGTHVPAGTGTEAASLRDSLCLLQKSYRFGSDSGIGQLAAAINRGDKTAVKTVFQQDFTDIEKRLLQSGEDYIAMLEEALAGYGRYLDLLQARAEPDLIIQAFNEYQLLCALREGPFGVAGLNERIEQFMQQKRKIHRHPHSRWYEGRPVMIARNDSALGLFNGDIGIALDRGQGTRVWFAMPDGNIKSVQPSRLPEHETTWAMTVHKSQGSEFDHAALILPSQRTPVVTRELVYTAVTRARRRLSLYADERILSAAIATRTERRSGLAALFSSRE
Sequence of Exodeoxyribonuclease V (P07648 whole entry): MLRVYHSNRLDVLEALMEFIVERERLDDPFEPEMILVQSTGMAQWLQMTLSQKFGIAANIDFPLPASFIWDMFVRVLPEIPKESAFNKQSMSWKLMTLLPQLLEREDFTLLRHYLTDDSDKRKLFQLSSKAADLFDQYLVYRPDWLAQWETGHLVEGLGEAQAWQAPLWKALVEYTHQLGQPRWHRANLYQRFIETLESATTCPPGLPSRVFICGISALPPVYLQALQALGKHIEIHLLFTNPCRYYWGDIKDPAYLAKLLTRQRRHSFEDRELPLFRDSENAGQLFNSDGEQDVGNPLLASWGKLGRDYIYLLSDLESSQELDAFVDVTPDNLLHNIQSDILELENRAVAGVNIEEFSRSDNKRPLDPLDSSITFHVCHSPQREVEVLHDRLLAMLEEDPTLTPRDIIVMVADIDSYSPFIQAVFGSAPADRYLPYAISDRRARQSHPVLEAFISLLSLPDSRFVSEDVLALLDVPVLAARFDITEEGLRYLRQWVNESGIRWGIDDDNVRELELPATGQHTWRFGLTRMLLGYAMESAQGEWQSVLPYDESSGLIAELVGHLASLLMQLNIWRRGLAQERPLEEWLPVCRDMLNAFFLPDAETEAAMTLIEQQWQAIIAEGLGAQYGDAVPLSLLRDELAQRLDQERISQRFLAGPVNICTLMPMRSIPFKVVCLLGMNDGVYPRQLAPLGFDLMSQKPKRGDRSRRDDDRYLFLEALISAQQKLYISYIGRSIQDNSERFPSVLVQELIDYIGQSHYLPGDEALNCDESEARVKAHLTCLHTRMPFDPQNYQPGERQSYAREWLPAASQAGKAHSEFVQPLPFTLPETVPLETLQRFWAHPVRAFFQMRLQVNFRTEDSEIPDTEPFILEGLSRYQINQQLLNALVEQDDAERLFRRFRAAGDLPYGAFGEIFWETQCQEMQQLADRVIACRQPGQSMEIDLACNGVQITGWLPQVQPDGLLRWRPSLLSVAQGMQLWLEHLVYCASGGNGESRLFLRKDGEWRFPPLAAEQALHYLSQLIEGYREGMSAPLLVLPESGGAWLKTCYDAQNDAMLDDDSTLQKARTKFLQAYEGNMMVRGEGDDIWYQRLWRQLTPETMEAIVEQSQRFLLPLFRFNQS
Sequence of Exodeoxyribonuclease V (P08394 whole entry): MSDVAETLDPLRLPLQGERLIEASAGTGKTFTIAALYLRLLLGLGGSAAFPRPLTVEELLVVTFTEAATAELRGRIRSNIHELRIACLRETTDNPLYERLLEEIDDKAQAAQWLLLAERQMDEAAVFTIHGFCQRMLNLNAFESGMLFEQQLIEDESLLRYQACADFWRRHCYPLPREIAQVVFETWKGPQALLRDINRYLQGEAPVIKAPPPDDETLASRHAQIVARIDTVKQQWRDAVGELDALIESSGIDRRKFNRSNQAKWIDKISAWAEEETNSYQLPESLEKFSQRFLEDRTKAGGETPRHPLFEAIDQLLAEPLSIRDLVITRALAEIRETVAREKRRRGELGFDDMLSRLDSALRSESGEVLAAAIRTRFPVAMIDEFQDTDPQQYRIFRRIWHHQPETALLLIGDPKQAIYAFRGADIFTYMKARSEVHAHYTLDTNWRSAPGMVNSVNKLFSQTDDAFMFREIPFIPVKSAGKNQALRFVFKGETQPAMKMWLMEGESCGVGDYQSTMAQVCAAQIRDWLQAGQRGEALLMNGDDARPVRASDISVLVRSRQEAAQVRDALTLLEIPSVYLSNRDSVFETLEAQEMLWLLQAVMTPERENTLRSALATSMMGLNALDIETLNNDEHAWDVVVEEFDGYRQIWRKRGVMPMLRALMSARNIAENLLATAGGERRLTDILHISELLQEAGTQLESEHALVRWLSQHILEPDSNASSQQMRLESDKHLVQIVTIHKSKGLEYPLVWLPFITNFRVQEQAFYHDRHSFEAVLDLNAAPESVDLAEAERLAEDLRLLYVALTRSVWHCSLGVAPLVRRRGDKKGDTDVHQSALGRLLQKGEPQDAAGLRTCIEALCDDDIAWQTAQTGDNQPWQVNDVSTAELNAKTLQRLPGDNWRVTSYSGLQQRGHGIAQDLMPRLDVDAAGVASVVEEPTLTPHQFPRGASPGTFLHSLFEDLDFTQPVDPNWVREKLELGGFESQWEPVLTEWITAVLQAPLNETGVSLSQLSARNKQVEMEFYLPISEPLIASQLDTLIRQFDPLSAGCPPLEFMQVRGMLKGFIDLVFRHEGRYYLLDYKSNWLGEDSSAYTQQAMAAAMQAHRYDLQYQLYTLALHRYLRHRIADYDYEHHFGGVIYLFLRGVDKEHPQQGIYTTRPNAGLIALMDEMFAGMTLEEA

[1] = Counterscreen for AddAB inhibitors: absorbance-based bacterial cell-based high throughput dose response assay for inhibitors of bacterial viability. [Related pubchem assays (depositor defined):AID435030, AID449728, AID449731, AID488942, AID488955, AID488956]; type: functional
A-375 [2] = assay: MITF: Counter assay: A375 proliferation Measured in Cell-Based System Using Plate Reader - 2084-03_Inhibitor_Dose_DryPowder_Activity. [Related pubchem assays (depositor defined):AID488944]; type: functional; settings: Homo sapiens
A-375 [3] = assay: proliferation inhibition in MITF-low A375 cells – cell-based, cherry-pick samples, set 2, counter-screen for MITF modulator project, dose response (AID 540335); type: functional; settings: Homo sapiens
Jurkat = assay: SAR Analysis of small molecule inhibitors of […] specific antigen receptor-induced NF-kB activation in a Jurkat cell line using a luminescence assay - Set 3. [Related pubchem assays (depositor defined):AID435022, AID435025, AID465]; type: functional, cell-based; settings: Homo sapiens
HEK293 [4] = assay: SAR Analysis of small molecule inhibitors of B-cell specific antigen receptor-induced NF-kB activation in a HEK-293T cell line using a luminescence assay - Set 2. [Related pubchem assays (depositor defined):AID435022, AID435025, AID489021]; type: functional, cell-based; settings: Homo sapiens
HEK293 [5] = assay: HEK293T cell viability loss, resazurin readout – resazurin fluorescence, cytotoxicity control for NF-kB activator project, SAR follow-up (AID 493251); type: functional, cell-based; settings: Homo sapiens
SUMO E1/E2 = SUMO E1/E2 (Homo sapiens, UniProt P63279+Q9UBE0+Q9UBT2); assay: SAR analysis of SUMOylation using HTRF in an in-Vitro dose response assay. [Related pubchem assays (depositor defined):AID2006, AID2011, AID2018, AID2069, AID2658]; type: functional
[6] = target: T1, Voltage-gated N-type calcium channel alpha-1B subunit/Amyloid beta A4 precursor protein-binding family A member 1 (Homo sapiens, UniProt Q00975+Q02410); assay: disruptors of Mint-PDZ/N-type channel peptide interaction – biochemical, HTRF, set 2, SAR follow-up (AID 434980); type: functional
[7] = target: T1, Voltage-gated N-type calcium channel alpha-1B subunit/Amyloid beta A4 precursor protein-binding family A member 1; assay: disruptors of Mint-PDZ/N-type channel peptide interaction – biochemical, HTRF, SAR follow-up (AID 2489); type: functional
[8] = target: DNA repair protein RAD52 homolog (Homo sapiens, UniProt P43351); type: functional, biochemical
[9] = NIH-3T3 fibroblast cytotoxicity, dose response, cytotoxicity control, cell-based, fluorescence, Alamar Blue, secondary assay (AID 2327); type: functional;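 also: NIH-3T3 mouse fibroblasts cultured with fluconazole at 8 µg/mL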
[10] = fluconazole-exposed Candida albicans growth modulators – fluorescence, retest, confirmation (AID 2467); type: functional, cell-based
[11] = Luminescence Cell-Based Dose Retest to Confirm Inhibitors of Cancer Stem Cells. [Related pubchem assays (depositor defined):AID2717, AID2721]; type: functional; settings: Homo sapiens
[12] = target: Heat shock protein HSP 90-alpha (Homo sapiens, UniProt P07900); type: functional, organism-based
H9c2 = assay: cells; type: functional, cell-based; settings: Rattus norvegicus, H9c2, Myocardium
[13] = target: T2, Heat shock factor protein 1 (Mus musculus, UniProt P38532); assay: decrease of HSF1-responsive luciferase luminescence – cell-based, NIH3T3, dose retest, confirmation (AID 2382); type: functional;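 also: NIH3T3 fibroblasts with HSF1-driven luciferase reporter stressed by proteasome inhibitor MG132; luminescence from HSF1-driven luciferase expression after 8 hours of MG132 stress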
T2 sequence (P38532 whole entry): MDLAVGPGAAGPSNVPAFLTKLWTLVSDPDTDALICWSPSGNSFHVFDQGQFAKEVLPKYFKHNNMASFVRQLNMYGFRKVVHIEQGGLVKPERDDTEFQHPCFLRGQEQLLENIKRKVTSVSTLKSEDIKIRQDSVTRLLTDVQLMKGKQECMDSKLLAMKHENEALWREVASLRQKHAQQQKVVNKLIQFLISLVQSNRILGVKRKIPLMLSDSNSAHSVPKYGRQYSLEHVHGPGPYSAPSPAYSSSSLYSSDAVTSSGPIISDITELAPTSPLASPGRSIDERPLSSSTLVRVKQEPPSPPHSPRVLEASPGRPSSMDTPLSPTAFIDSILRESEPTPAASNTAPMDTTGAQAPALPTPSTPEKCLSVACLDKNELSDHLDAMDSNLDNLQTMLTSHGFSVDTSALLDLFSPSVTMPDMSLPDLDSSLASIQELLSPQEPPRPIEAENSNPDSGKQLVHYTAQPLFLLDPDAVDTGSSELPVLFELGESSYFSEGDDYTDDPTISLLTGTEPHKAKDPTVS

Escherichia coli [14] = assay: microbe, parasite or virus in culture
Phospholipase D1 = Phospholipase D1 (Homo sapiens, UniProt Q13393); assay: cellular phospholipase D1 inhibition IC50 – cell-based, dose response (AID 602151); type: functional;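 also: cellular PLD1 assay in Calu-1 cells stimulated with PMA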
Sequence of Phospholipase D1 (Q13393 whole entry): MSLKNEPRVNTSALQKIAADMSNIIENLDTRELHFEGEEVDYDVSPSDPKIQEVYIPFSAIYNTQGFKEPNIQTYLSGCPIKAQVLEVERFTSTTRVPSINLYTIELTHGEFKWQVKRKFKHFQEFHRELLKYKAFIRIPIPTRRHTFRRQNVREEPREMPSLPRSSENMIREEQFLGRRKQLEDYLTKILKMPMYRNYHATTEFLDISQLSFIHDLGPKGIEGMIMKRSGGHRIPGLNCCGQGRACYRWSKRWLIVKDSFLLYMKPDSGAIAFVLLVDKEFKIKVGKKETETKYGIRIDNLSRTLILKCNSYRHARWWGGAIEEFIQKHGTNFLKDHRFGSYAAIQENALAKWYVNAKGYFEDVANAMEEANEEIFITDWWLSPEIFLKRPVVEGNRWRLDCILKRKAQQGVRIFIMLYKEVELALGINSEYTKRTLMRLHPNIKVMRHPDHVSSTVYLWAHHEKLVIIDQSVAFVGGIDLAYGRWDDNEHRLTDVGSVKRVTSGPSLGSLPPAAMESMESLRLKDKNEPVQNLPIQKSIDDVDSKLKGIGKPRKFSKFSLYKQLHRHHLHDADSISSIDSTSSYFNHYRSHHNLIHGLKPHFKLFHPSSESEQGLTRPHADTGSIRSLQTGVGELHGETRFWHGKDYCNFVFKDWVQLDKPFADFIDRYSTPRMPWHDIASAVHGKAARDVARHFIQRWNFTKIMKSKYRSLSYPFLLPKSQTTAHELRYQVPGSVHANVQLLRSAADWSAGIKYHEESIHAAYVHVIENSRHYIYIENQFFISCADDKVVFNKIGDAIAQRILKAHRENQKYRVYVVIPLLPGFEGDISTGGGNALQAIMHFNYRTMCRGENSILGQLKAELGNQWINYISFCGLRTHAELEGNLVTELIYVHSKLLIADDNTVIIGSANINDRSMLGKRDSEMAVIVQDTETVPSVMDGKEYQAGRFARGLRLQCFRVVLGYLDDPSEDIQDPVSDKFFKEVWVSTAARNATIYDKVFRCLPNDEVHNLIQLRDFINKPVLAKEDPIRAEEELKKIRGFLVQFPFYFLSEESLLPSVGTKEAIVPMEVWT

Phospholipase D2 = Phospholipase D2 (Homo sapiens, UniProt O14939); assay: cellular phospholipase D2 inhibition IC50 – cell-based, dose response (AID 602147); type: functional;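 also: cellular assay in HEK293 cells overexpressing GFP-tagged PLD2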
Sequence of Phospholipase D2 (O14939 whole entry): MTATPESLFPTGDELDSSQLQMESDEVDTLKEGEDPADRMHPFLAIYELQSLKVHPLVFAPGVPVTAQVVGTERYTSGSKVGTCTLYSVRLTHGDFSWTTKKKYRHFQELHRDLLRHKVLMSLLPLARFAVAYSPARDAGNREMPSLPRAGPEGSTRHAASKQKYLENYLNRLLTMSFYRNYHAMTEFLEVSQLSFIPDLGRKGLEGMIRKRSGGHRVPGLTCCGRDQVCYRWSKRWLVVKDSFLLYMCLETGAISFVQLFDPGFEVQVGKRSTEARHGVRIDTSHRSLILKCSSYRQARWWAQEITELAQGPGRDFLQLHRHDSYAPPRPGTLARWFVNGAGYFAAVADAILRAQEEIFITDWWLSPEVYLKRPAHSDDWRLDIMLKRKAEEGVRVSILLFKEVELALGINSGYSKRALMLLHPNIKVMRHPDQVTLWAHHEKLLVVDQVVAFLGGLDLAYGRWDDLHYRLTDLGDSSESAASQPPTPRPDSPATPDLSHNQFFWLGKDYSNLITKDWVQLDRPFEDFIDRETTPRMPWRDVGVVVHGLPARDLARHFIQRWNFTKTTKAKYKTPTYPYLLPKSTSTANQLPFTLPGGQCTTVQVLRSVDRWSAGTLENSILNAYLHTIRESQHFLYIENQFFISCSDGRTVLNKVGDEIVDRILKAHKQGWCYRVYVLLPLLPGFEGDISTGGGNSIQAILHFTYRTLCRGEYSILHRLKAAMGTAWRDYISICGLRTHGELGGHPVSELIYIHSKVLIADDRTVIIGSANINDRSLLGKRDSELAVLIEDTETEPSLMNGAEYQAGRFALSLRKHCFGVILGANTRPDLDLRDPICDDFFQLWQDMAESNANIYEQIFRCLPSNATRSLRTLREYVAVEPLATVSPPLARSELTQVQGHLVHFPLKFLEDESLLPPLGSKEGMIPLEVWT

[15] = target: T3, Sentrin-specific protease 8 (Homo sapiens, UniProt Q96LD8); assay: inhibition of human SENP8 cleavage activity – biochemical, luminescence, SAR follow-up (AID 504501); type: functional
T3 sequence (Q96LD8 whole entry): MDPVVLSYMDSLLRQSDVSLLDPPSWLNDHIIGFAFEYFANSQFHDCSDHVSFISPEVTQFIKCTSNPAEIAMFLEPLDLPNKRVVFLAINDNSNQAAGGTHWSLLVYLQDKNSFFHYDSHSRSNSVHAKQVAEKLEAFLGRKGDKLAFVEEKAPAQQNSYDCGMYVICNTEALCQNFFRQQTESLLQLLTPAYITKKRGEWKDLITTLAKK

Caspase-3 = target: T4, Caspase-3 (Homo sapiens, UniProt P42574); assay: SAR Analysis of small molecule inhibitors of Sentrin-specific proteases (SENPs) using a Caspase-3 Selectivity assay. [Related pubchem assays (depositor defined):AID2540, AID2599, AID434973, AID489001]; type: functional
T4 sequence (P42574 whole entry): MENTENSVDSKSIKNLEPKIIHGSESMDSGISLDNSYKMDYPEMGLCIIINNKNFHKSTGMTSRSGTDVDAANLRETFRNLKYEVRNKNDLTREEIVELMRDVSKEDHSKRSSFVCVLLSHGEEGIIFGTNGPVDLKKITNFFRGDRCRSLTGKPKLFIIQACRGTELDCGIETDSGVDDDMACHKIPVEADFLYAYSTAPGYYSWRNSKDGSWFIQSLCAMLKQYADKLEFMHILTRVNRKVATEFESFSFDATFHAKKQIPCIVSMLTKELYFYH

[16] = target: T5, Sentrin-specific protease 6 (Homo sapiens, UniProt Q9GZR1); assay: SAR Analysis of small molecule inhibitors of Sentrin-specific protease 6 (SENP6) using a Luminescent assay. [Related pubchem assays (depositor defined):AID2582, AID2599]; type: functional
T5 sequence (Q9GZR1 whole entry): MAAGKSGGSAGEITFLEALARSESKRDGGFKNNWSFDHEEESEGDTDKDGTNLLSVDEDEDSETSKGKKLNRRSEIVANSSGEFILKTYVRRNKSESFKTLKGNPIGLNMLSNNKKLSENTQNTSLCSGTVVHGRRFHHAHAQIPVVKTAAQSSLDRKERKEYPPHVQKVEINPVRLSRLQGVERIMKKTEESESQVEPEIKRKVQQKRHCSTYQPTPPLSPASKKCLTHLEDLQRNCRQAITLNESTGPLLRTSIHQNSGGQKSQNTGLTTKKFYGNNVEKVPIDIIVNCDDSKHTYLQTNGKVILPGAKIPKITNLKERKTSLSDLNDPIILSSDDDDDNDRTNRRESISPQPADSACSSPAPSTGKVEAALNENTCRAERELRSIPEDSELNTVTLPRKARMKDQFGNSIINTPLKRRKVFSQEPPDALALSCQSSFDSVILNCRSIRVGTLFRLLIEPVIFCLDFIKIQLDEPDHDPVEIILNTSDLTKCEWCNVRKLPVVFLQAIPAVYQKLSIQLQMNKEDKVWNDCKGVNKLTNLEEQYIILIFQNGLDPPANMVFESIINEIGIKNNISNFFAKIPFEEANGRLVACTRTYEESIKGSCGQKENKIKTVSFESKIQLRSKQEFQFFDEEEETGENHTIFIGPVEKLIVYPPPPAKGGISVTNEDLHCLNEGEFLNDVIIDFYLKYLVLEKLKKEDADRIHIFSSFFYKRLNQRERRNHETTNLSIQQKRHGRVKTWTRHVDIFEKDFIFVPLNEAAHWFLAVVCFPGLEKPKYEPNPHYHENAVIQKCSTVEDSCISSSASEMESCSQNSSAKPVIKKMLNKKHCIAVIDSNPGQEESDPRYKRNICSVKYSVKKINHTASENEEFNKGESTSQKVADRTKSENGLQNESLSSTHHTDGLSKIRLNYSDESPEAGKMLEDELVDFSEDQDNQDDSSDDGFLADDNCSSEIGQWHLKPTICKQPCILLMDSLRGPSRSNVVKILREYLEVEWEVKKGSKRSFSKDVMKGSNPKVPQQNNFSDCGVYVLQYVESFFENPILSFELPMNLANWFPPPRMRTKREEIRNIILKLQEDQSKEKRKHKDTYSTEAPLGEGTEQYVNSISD

[17] = target: T6, Sentrin-specific protease 7 (Homo sapiens, UniProt Q9BQF6); assay: inhibition of human SENP7 cleavage activity – biochemical, luminescence, SAR follow-up (AID 504497); type: functional
T6 sequence (Q9BQF6 whole entry): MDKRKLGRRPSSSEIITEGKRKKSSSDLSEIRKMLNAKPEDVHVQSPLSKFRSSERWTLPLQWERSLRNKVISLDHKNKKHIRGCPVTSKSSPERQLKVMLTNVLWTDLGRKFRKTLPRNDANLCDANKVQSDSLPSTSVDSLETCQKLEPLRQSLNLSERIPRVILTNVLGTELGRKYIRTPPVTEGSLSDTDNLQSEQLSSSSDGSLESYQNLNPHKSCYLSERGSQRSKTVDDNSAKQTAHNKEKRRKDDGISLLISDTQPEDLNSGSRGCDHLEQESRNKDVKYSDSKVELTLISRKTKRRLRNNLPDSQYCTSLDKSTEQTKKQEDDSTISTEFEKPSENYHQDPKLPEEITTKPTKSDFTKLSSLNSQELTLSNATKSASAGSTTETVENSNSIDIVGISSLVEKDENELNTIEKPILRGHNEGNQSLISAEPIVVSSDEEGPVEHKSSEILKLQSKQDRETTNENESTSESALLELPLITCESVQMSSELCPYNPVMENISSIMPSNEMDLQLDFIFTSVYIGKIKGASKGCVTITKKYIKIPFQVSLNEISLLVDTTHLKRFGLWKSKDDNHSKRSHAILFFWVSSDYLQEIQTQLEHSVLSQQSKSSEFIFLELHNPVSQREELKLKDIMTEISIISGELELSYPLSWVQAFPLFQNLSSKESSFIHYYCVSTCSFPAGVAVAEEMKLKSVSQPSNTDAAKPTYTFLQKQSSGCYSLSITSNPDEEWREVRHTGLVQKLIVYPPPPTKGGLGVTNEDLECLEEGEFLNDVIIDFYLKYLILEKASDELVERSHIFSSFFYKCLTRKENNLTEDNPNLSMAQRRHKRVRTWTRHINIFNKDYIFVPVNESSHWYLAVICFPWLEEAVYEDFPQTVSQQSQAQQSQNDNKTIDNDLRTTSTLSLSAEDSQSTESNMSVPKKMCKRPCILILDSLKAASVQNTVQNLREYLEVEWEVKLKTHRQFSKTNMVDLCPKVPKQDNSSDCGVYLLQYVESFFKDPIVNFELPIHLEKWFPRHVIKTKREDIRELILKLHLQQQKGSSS

Escherichia coli [18] = assay: microbe, parasite or virus in culture; remark: listed apart in the source

## CC(=O)Nc1ccc2nc(NC(=O)c3ccc([N+](=O)[O-])o3)sc2c1
Exodeoxyribonuclease V
  IC50: > 119 µM (inactive)
[1]
  IC50: > 119 µM (inactive)

## CCOc1ccc(N(CC(=O)Nc2ccc(OC)cc2)S(C)(=O)=O)cc1
A-375 [2]
  AC50: > 35 µM (active)
A-375 [3]
  AC50: > 35 µM (active)

## CCOc1ccc(-c2nc(CSCC(=O)NCCc3ccccc3)c(C)o2)cc1
Jurkat
  IC50: 55 µM (inactive)
HEK293 [4]
  IC50: 22.9 µM (inactive)
HEK293 [5]
  IC50: 35.6 µM (inactive)

## CCN(CC)CCNC(=O)c1cc(-c2ccco2)nc2ccccc12
SUMO E1/E2
  IC50: 2.01 µM (active)
[6]
  IC50: 6 µM (active)
[7]
  IC50: 5.19 µM (active)
[8]
  AC50: 11.7 µM (active)

## O=C1c2ccccc2NC(c2ccc(-c3ccc(Br)cc3)o2)N1O (stereo not drawn)
[9]
  EC50: > 150 µM (inconclusive)
[10]
  EC50: > 38 µM (not active)
Exodeoxyribonuclease V
  IC50: > 119 µM (inactive)
[11]
  AC50: 4.35 µM (active)
[1]
  IC50: > 119 µM (inactive)
[12]
  AC50: 6.74 µM (active)
H9c2
  IC50: > 79 µM (inactive)

## CCN1CCN(CCCNc2[nH]cnc3ncnc2-3)CC1
[13]
  EC50: > 195 µM (not active)
Escherichia coli [14]
  AC50: 74.1 µM (active)

## C[C@@H](CN1CCC(n2c(=O)[nH]c3ccccc32)CC1)NC(=O)c1ccco1
Phospholipase D1
  IC50: 0.19 µM (active)
Phospholipase D2
  IC50: 7.9 µM (active)

## COc1ccccc1CC(=O)Nc1ccc(-c2noc(/C=C/c3ccccc3)n2)cc1
[15]
  IC50: > 99 µM (inactive)
Caspase-3
  IC50: > 99 µM (inactive)
[16]
  IC50: > 99 µM (inactive)
[17]
  IC50: > 99 µM (inactive)

## O=C(NCCN1CCC2(CC1)C(=O)NCN2c1ccc(Cl)cc1)c1ccc(Cl)cc1
Phospholipase D1
  IC50: 3.59 µM (active)
Phospholipase D2
  IC50: 0.635 µM (active)

## CC(C)CNC(=O)CCc1nc(-c2ccc(C(C)(C)C)cc2)no1
Jurkat
  IC50: 2.97 µM (active)
HEK293 [4]
  IC50: 1.51 µM (active)
HEK293 [5]
  IC50: > 80 µM (inactive)

## Cc1ccc(C2CC2/C(=N/O)c2ccc(F)cc2)cc1 (stereo not drawn)
Escherichia coli [18]
  AC50: 25.9 µM (active)
Escherichia coli [14]
  AC50: 53.3 µM (active)
